Measurements taken from article PMC5599305 (The pharmacogenomics journal, 2017).

Experiments:
Type in all cases: cell-based
[1] = target: T1, human α4β2 nicotinic receptor, 3:2 (α4:β2) stoichiometry; (α4)3(β2)2 (Homo sapiens, UniProt P17787+P43681); test: two-electrode voltage clamp, Xenopus oocytes; settings: agonist
[2] = target: T1, human α4β2 nicotinic receptor, 3:2 (α4:β2) stoichiometry; (α4)3(β2)2; test: two-electrode voltage clamp, Xenopus oocytes, direct activation; settings: 200 μM compound alone; weak agonism
[3] = target: human α4β2 nicotinic receptor, 2:3 stoichiometry; (α4)2(β2)3 (Homo sapiens, UniProt P17787+P43681); test: as above; settings: 200 μM compound alone; weak agonism
human α4β2 nicotinic receptor, 2:3 stoichiometry; (α4)2(β2)3, sequence (P43681 27-627): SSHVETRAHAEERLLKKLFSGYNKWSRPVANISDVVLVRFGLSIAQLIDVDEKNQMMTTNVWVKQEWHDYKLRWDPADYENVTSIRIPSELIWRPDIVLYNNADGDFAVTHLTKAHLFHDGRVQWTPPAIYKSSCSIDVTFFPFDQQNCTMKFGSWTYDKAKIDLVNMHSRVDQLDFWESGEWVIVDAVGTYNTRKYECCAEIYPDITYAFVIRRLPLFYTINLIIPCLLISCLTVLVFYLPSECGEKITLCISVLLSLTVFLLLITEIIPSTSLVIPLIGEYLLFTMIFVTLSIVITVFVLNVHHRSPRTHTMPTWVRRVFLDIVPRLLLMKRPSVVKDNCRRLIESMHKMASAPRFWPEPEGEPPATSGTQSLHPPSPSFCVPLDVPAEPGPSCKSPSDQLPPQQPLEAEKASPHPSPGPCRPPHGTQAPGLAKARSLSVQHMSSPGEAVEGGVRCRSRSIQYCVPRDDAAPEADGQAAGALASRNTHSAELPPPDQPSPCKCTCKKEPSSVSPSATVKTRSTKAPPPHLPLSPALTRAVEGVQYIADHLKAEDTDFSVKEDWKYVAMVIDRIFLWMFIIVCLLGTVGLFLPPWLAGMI
human α4β2 nicotinic receptor, 2:3 stoichiometry; (α4)2(β2)3, sequence (P17787 26-502): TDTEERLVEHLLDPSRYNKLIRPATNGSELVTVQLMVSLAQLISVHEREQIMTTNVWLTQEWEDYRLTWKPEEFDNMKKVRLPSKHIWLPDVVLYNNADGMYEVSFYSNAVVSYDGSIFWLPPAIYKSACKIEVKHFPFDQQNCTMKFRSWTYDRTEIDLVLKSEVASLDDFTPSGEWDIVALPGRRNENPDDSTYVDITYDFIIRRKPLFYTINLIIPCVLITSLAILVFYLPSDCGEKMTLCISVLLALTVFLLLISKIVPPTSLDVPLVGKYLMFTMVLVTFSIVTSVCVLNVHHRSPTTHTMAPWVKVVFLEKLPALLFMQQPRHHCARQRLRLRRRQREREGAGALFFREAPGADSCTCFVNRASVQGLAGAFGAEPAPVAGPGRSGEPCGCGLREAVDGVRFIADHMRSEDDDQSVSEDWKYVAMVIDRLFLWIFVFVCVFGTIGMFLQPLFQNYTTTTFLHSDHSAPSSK

T1 sequence (P43681 27-627): as the sequence (P43681 27-627) above
T1 sequence (P17787 26-502): as the sequence (P17787 26-502) above

Row | SMILES | EC3 [1] | relative peak response, % of 1 mM ACh response, at 200 μM [2] [%] | relative peak response, % of saturating ACh response, at 200 μM [3] [%]
1 | CC(=O)OCC[N+](C)(C)C [acetylcholine] | ~ 1 μM | – | –
2 | C[N@@+]1([O-])CCC[C@H]1c1cccnc1 [trans-nicotine-N-oxide] | – | 1.7 ± 0.3 | 5.7 ± 1.1
